In patent publication US20080085879A1, “METHODS OF TREATING ESTROGEN-RESPONSIVE CONDITIONS BY ORPHAN NUCLEAR RECEPTOR ACTIVATION” (University of Pittsburgh - Of the Commonwealth System of …, priority 2006, published 2008):
“Also recorded” adds a separate entry of the source.

How the values were obtained:
[1] = test system: estrogen sulfotransferase (EST); assay: EST mRNA expression in mouse tissues (Northern blot, real-time PCR) after agonist treatment; assay type: in vivo; settings: for EST mRNA expression in liver: wild-type mice, compared to control (DMSO)
Experimental: Transgenic mice, having a mixed background of C57BL/6J and 129/SvImJ, were created expressing activated LXRa in the liver under the control of the fatty acid binding protein (FABP) promoter. (FIG. 1) EST levels in liver cells of the transgenic mice were compared to wild-type mice using Northern blot analysis and real-time PCR, as described in Gong, H. et al. Mol. Endocrinol. 20:279-290 (2006) and Zhou, J. et al. J Biol Chem. 281: 15013-15020 (2006), respectively.
Wild-type mice were treated with LXR agonists TO1317 (T0901317) or 22(R)-hydroxycholesterol (FIG. 1a), and EST levels were compared to DMSO-treated control mice as described above.
LXRα and LXRβ double knockout (LXR DKO) mice were created as described in Peet, D. J. et al., Cell 93:693-704 (1998).

[2] = test system: uterine epithelial proliferation; assay: Uterine estrogen response: epithelial proliferation by BrdU labeling in ovariectomized mice; assay type: in vivo, mouse
[3] = test system: estrogen-responsive uterine genes (Pgr, c-fos, Igf-1, Txnip); assay: Estrogen-responsive uterine gene expression by real-time PCR in ovariectomized mice; assay type: in vivo, mouse
uterus = assay: Uterotropic bioassay; assay type: in vivo, mouse; settings: wild type female mice, E2 5 μg/kg s.c. daily for 3 d
Experimental: Ovariectomized wild type and VP-LXRα transgenic females were subjected to uterine estrogen response measurements that include epithelial proliferation by BrdU labeling and estrogen responsive gene expression by real-time PCR. Five-week old virgin females were subjected to ovariectomies. Seven days after the surgery, mice were given a single s.c. injection of 17β-estradiol (E2) (25 μg/mouse). 18 h after the E2 injection, mice were given a single i.p. injection of bromodeoxyuridine (BrdU) (60 mg/kg) and sacrificed 2 h after. One uterine horn was harvested for histology and measurement of cell proliferation by BrdU immunostaining (Xie, W., et al., Mol. Endocrinol. 11: 1766-1781 (1997)) and the other was harvested for RNA extraction and gene expression analysis by real-time PCR. In the uterotropic bioassay, 3-week-old virgin female mice received daily s.c. injections of vehicle or E2 (5 μg/kg) for 3 d. Mice were then sacrificed 24 h after the last E2 dose and the uteri were dissected, weighed, and photographed. When necessary, mice were subjected to daily treatment of TO1317 (50 mg/kg, i.p. injection) starting 3 d prior to the E2 treatment and continued until the completion of the experiments.

CYP3A (PXR target gene) = assay: CYP3A expression in mouse liver (Northern blot); assay type: in vivo
LXRα = target: T1, LXRα (Mus musculus, UniProt Q9Z0Y9); assay: mEst promoter luciferase reporter assay in HepG2 cells co-transfected with LXRα; assay type: cell-based; settings: TO1317 10 μM 24 h
T1 construct: expressed in transfected cells; host or cells: HepG2
T1 sequence (Q9Z0Y9 1-445): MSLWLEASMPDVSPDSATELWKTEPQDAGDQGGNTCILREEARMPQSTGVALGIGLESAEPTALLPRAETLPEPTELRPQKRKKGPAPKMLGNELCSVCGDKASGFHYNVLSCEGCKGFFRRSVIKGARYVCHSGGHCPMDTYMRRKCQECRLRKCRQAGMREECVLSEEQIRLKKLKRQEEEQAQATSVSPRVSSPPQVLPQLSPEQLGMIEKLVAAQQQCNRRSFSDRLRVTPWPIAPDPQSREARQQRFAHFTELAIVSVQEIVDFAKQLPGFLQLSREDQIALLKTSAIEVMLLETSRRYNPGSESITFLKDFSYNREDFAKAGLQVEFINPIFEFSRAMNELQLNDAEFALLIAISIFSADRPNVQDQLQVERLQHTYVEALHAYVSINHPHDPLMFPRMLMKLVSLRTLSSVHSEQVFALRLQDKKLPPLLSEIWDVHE
Excerpt: (§1) The 4.2-kb (−4164 bp to +46 bp) 5′ regulatory sequences of the mEst gene were cloned by PCR using a template of mEst-containing bacterial artificial chromosome (BAC) clone (ID RP24-571N6) from the Children's Hospital Oakland Research Institute BACPAC Resource Center (Oakland, Calif.). Deletion mutants were generated by PCR-mediated mutagenesis. HepG2 cells were transfected with the reporter constructs and LXRα expression vector in 48-well plates as previously described . Gong, H. et al., Mol. Endocrinol. 20:279-290 (2006) When necessary, cells were treated with TO1317 (10 μM) for 24 h prior to luciferase assay. The transfection efficiency was normalized against the β-gal activities from a co-transfected CMX-β gal vector. The hydrodynamic liver transfection was performed as we previously described. Zhou, J. et al. J Biol Chem. 281: 15013-15020 (2006). EMSA were performed using in vitro transcribed and translated proteins as described previously. Saini, S. P. et al., Hepatology 41:497-505 (2005)

mouse LXRα = target: T2, mouse LXRα (Mus musculus, UniProt Q9Z0Y9); assay: CHIP assay of HA-LXRα recruitment onto the Est promoter in transfected mouse liver; assay type: in vivo; settings: wild type mouse liver, TO1317 50 mg/kg i.p.
T2 construct: expressed in transfected cells; host or cells: liver of wild type mice (hydrodynamic transfection in vivo)
T2 sequence (Q9Z0Y9 1-445): T1 sequence (Q9Z0Y9 1-445)
Excerpt: Zhou, J. et al. J Biol Chem. 281: 15013-15020 (2006). […] Zhou, J. et al. J Biol Chem. 281: 15013-15020 (2006).

[4] = test system: mEst 2.1-kb natural promoter; assay: Hydrodynamic liver transfection of Est promoter reporter; assay type: in vivo
Excerpt: as §1

[5] = MCF-7/VEGF breast tumor xenograft in ovariectomized nude mice; assay type: in vivo, mouse
Excerpt: (§2) Ovariectomized nude mice were purchased from Taconic (Germantown, N.Y.). ER-positive and estrogen responsive breast cancer MCF-7 cells were used. The MCF-7 cells were MCF-7/VEGF cells that overexpress the vascular endothelial growth factor (VEGF), rather than parent MCF-7 cells. […] Guo, P. et al., Cancer Res. 63:4684-4691 (2003).
(§3) MCF-7 breast tumors were established in the mammary fat pads of ovariectomized female nude mice as described previously. Briefly, 1×10^7 of MCF-7/VEGF cells were inoculated into the mammary fat pads of 8-week old ovariectomized female nude mice that were implanted with E2 pellets (0.72 mg/60-day release) or placebo pellets (Innovative Research of America, Sarasota, Fla.). The E2-treated mice were randomly divided into two groups, with one group receiving daily treatment of TO1317 (15 mg/kg by gavage) and the other receiving vehicle. The volumes of the tumors were measured using a caliper every five days. Mice were labeled with BrdU 30 min prior to sacrificing. The serum concentrations of E2 were measured using the ACTIVE® ESTRADIOL EIA kit (Diagnostic Systems Laboratories, Webster, Tex.).
(§4) Breast tumors were established as described in Example 4, using MCF-7/VEGF cells.

MCF-7/VEGF cells = assay: as above; assay type: in vivo, mouse
Excerpt: as §2, §3, §4

EST = EST mRNA expression in primary human hepatocytes (RT-PCR); assay type: cell-based; settings: compared to DMSO control
Experimental: Expression of EST MRNA was measured as described above in human hepatocytes and in human breast cancer line MCF7.

[6] = ovariectomized wild type female mice

**Q.** With `CC(C)CC[C@@H](O)[C@@H](C)[C@H]1CC[C@H]2[C@@H]3CC=C4C[C@@H](O)CC[C@]4(C)[C@H]3CC[C@]12C` [22(R)-hydroxycholesterol] as the compound, how does the “EST mRNA expression in liver” value [1] read?
**A.** Its value is “up-regulated”.

**Q.** What does the source list for `C[C@]12CC[C@@H]3c4ccc(O)cc4CC[C@H]3[C@@H]1CC[C@@H]2O` [E2, 17β-estradiol]?
**A.** uterine BrdU labeling ([2]; ovariectomized wild type mice, E2 25 μg/mouse s.c.): increased; mRNA expression of Pgr, c-fos and Igf-1 in uterus [3, 6]: induced; mRNA expression of Txnip in uterus [3, 6]: suppressed; uterotropic effect (uterine enlargement, water imbibition) (uterus): typical uterine enlargement

**Q.** Which CYP3A expression (CYP3A (PXR target gene)) does the source give for `CC(=O)[C@H]1[C@H](C#N)C[C@H]2[C@@H]3CC=C4C[C@@H](O)CC[C@]4(C)[C@H]3CC[C@@]21C` [PCN, pregnenolone-16alpha-carbonitrile] here?
**A.** The CYP3A expression was “induced”.

**Q.** Which results are given for `O=S(=O)(c1ccccc1)N(CC(F)(F)F)c1ccc(C(O)(C(F)(F)F)C(F)(F)F)cc1` [TO1317]?
**A.** EST levels in LXR DKO mice ([1]; LXRα and LXRβ double knockout mice, compared with control mice): no increase; EST expression in testis ([1]; testis of male mice): not observed; EST mRNA expression in liver [1]: up-regulated; TO1317 effect on the E2 response (BrdU labeling) in EST null mice ([2]; EST null mice): abolished; E2 effect on uterine BrdU labeling ([2]; ovariectomized wild type mice, TO1317 50 mg/kg i.p. daily pre-treatment, E2 25 μg/mouse s.c.): compromised; basal proliferation (BrdU labeling) ([2]; treatment alone, in the absence of E2): little effect; TO1317 effect on E2-responsive gene expression in EST null mice ([3]; EST null mice, uterus): abolished; E2 effects on the expression of E2-responsive genes (Pgr, c-fos, Igf-1, Txnip) ([3]; TO1317-treated ovariectomized wild type mice, uterus): abolished; activation of mutant variant of tk-Est/DR-4 reporter (LXRα; LXRα): not; activation of tk-Est/DR-4 reporter (LXRα; LXRα): activated; activation of 4.2-kb mEst promoter luciferase reporter (LXRα; wild type LXRα): activated; recruitment of HA-LXRα onto the Est promoter (CHIP) (mouse LXRα): resulted in the recruitment; activation of 2.1-kb natural Est promoter transfected into mouse liver [4]: activated; hepatic EST expression in nude mice ([5]; TO1317-treated vs mock-treated nude mice (data not shown)): significantly induced; circulating E2 levels ([5]; tumor bearing mice, TO1317 15 mg/kg by gavage daily): decreased; tumor cell BrdU labeling index (MCF-7/VEGF cells; E2-induced tumors, TO1317 15 mg/kg by gavage daily): decreased; E2-enhanced tumor growth (tumor volume) (MCF-7/VEGF cells; E2 pellets, TO1317 15 mg/kg by gavage daily vs vehicle, 15 mg/kg): inhibited; also recorded: significantly attenuated

**Q.** What does the source list for `C[C@@H]1C[C@H]2[C@@H]3CCC4=CC(=O)C=C[C@]4(C)[C@@]3(F)[C@@H](O)C[C@]2(C)[C@@]1(O)C(=O)CO` [dexamethasone]?
**A.** EST expression in PXR−/− mice ([1]; PXR−/− mice, liver): still induced; EST mRNA induction in human hepatocytes (EST): increased induction
